{"source": "paper PMC10165273", "about": "“Itch receptor MRGPRX4 interacts with the receptor activity–modifying proteins” (The Journal of Biological Chemistry, 2023)", "key": {"[1]": {"molecular_target": "T1, MRGPRX4 (Homo sapiens, UniProt Q96LA9)", "T1 construct": "expressed in transfected cells; host or cells: HEK293T", "T1 sequence (Q96LA9 whole entry)": "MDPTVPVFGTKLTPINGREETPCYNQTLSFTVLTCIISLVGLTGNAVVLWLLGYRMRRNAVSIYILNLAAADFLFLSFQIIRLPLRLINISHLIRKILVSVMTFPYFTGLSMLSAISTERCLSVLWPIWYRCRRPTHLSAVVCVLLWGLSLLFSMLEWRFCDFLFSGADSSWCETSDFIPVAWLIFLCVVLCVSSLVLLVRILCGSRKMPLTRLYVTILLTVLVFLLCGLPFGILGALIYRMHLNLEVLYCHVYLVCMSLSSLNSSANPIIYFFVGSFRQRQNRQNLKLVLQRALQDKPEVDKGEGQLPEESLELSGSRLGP", "test": "IP1 accumulation HTRF assay, MRGPRX4", "assay_type": "cell-based", "design": "key to IP1 Basal / IP1 accumulation with YM (Figure 1c) / response to agonist, MRGPRX4 / IP1 accumulation: % IP1: unstimulated mock-transfected = 0%, fully stimulated MRGPRX4 = 100%", "description": "(§1) HEK293T cells were transfected with 1 pg/cell of MRGPRX4 DNA, and the amount of DNA was kept constant at 2 pg/cell with pcDNA3.1(+) empty vector, unless otherwise specified. Twenty four hours after transfection, IP1 assay was performed as previously described ([51]). When applicable, cells were treated with 1 μM YM254890 (YM) or different concentrations of U73122 for 1 h prior to addition of agonist or buffer. After incubation for 2 h, HTRF reagents and IP1 calibration standards were added and incubated for 2 h in the dark at room temperature. Time-resolved fluorescence signals were read on the BioTek Synergy NEO-TRF Hybrid multi-mode reader (BioTek Instruments). All data were carried out in three independent experiments with three technical replicate each.\nFor characterization of the Tet-On Nluc-HT7-MRGPRX4-GFP10-1D4 construct, HEK293T cells were transfected as previously described with some modifications. Dox dose-response of NLuc-HT7-MRGPRX4-GFP10-1D4 DNA titration was assayed by transfecting HEK293T cells with either 1 or 2 pg/cell of NLuc-HT7-MRGPRX4-GFP10-1D4 construct. Receptor expression was induced 4 h after transfection with addition of different concentrations of dox for 20 h. For the RAMP DNA titration assay, cells were cotransfected with a constant amount of 1 pg/cell of NLuc-HT7-MRGPRX4-GFP10-1D4 DNA and 1, 0.75, 0.5, or 0 pg/cell of each HA-RAMP-OLLAS with the homogenous transfection method. Four hours after transfection, receptor expression was induced with addition of 1000 ng/ml dox. Twenty hours after induction, IP1 assay was performed.\n(§2) Data reduction, standard calibration, and transformation of HTRF data were performed as previously described ([51]). Normalized IP1 values were calculated relative to the unstimulated mock-transfected cells (set to 0%) and fully stimulated MRGPRX4 (alone if applicable) (set to 100%)."}, "[2]": {"molecular_target": "T2, MRGPRX4 + RAMP1 (Homo sapiens, UniProt Q96LA9)", "T2 construct": "expressed in transfected cells; host or cells: HEK293T", "T2 sequence (Q96LA9 whole entry)": "as above", "test": "IP1 accumulation, MRGPRX4 coexpressed with RAMP1", "assay_type": "cell-based", "design": "key to IP1 Basal / response to agonist, X4:ramp1.I:1 / response to agonist, X4:ramp1.I:2 / response to agonist, X4:ramp1.I:0.25 / response to agonist, X4:ramp1.I:0.5: % IP1; unstimulated mock = 0%, fully stimulated MRGPRX4 = 100%", "settings": "Figure 4c-f, agonist 100µM, MRGPRX4 = 100", "description": "as §1\nFor a homogenous transfection of MRGPRX4, a master mix of MRGPRX4 DNA was made prior to addition of the RAMP DNA. […]\nas §2"}, "[3]": {"molecular_target": "T3, MRGPRX4 + RAMP2 (Homo sapiens, UniProt Q96LA9)", "T3 construct": "expressed in transfected cells; host or cells: HEK293T", "T3 sequence (Q96LA9 whole entry)": "as above", "test": "IP1 accumulation, MRGPRX4 coexpressed with RAMP2", "assay_type": "cell-based", "design": "key to response to agonist, X4:ramp2.I:2: % IP1: mock-transfected unstimulated = 0%, fully stimulated MRGPRX4 = 100%; key to IP1 Basal / response to agonist, X4:ramp2.I:0.25 / response to agonist, X4:ramp2.I:0.5 / response to agonist, X4:ramp2.I:1: % IP1; unstimulated mock = 0%, fully stimulated MRGPRX4 = 100%", "settings": "Figure 4c-f, agonist 100µM, MRGPRX4 = 100", "description": "as §1\n(§3) For RAMP DNA titration assay, HEK293T cells were cotransfected with a constant amount of 1 pg/cell of FLAG-MRGPRX4-GFP10-1D4 to which a serial dilution of 1, 0.75, 0.5, 0.25, or 0 pg/cell of each HA-RAMP-OLLAS was added. For a homogenous transfection of MRGPRX4, a master mix of MRGPRX4 DNA was made prior to addition of the RAMP DNA. […]\nas §2"}, "[4]": {"molecular_target": "T4, MRGPRX4 + RAMP3 (Homo sapiens, UniProt Q96LA9)", "T4 construct": "expressed in transfected cells; host or cells: HEK293T", "T4 sequence (Q96LA9 whole entry)": "as above", "test": "IP1 accumulation, MRGPRX4 coexpressed with RAMP3", "assay_type": "cell-based", "design": "key to IP1 Basal / response to agonist, X4:ramp3.I:0.25 / response to agonist, X4:ramp3.I:0.5 / response to agonist, X4:ramp3.I:1: % IP1; unstimulated mock = 0%, fully stimulated MRGPRX4 = 100%", "settings": "Figure 4c-f, agonist 100µM, MRGPRX4 = 100", "description": "as §1, §3, §2"}, "[5]": {"test_system": "mock-transfected HEK293T cells", "test": "IP1 accumulation, mock-transfected cells", "assay_type": "cell-based, human", "design": "IP1 Basal / IP1 span / IP1 Emax / IP1 accumulation, dose-response (Figure 1a) / IP1 accumulation with YM (Figure 1c) / IP1 accumulation: unit not given here", "settings": "pcDNA (mock), individual replicates", "description": "as §1\nValidation of CALCRL constructs was assayed by cotransfecting HEK293T cells with different tagged versions of CALCRL alone or with each RAMP and with the promiscuous Gqs5 Gq chimera protein, at a respective DNA ratio of 1:1:0.5. Gqs5 is an engineered Gq protein containing the last five amino acid residues of Gs, which allows Gs-coupled GPCRs to signal through Gq downstream signaling pathways ([55]). The homogenous transfection method described above was used for all DNA mixes. CALCRL:RAMP2:Gqs5-transfected cells served as positive control for RAMP functionality.\nas §2"}, "[6]": {"molecular_target": "T4, MRGPRX4 + RAMP3", "test": "IP1 accumulation, MRGPRX4 coexpressed with RAMP3", "assay_type": "cell-based", "design": "key: % IP1; unstimulated mock = 0%, fully stimulated MRGPRX4 = 100%", "settings": "Figure 4c-f; agonist 100µM; X4:ramp3 1:2; MRGPRX4 = 100"}}, "note": "Values joined by “and” are separate entries in the source; they are usually repeats but may differ in a detail not shown here. Identical values can stand only once."}
{"smiles": "C[C@H](CCC(=O)O)[C@H]1CC[C@H]2[C@@H]3[C@@H](O)C[C@@H]4C[C@H](O)CC[C@]4(C)[C@H]3CC[C@]12C", "note": "[UDCA, ursodeoxycholic acid]", "values": [{"measurement": "activation at 33.333 µM", "setting": "[1]; 2 h, log [agonist] (M) -4.47712, MRGX4-transfected, individual replicates, read-out: IP1 accumulation, dose-response (Figure 1a)", "value": 16.7, "unit": "%"}, {"measurement": "activation at 11.111 µM", "setting": "[1]; 2 h, log [agonist] (M) -4.95424, MRGX4-transfected, individual replicates, read-out: IP1 accumulation, dose-response (Figure 1a)", "value": 14.8, "unit": "%"}, {"measurement": "activation at 1.2346 µM", "setting": "[1]; 2 h, log [agonist] (M) -5.90849, MRGX4-transfected, individual replicates, read-out: IP1 accumulation, dose-response (Figure 1a)", "value": 12.9, "unit": "%"}, {"measurement": "activation at 0.4115 µM", "setting": "[1]; 2 h, log [agonist] (M) -6.38561, MRGX4-transfected, individual replicates, read-out: IP1 accumulation, dose-response (Figure 1a)", "value": 12.7, "unit": "%"}, {"measurement": "activation at 0.13717 µM", "setting": "[1]; 2 h, log [agonist] (M) -6.86273, MRGX4-transfected, individual replicates, read-out: IP1 accumulation, dose-response (Figure 1a)", "value": 12.1, "unit": "%"}, {"measurement": "response to agonist, MRGPRX4", "setting": "[1]; Figure 4c-f, agonist 100µM, MRGPRX4 alone (reference = 100)", "value": 100}, {"measurement": "IP1 Basal", "setting": "[1]; MRGPRX4 (Fig. 1A), HEK293T, normalized to 100 μM nateglinide", "value": 13.66}, {"measurement": "response to agonist, X4:ramp1.I:0.25", "setting": "[2]; X4:ramp1 1:0.25", "value": "100.75 and 106.142"}, {"measurement": "response to agonist, X4:ramp1.I:0.5", "setting": "[2]; X4:ramp1 1:0.5", "value": "100.618 and 106.983"}, {"measurement": "response to agonist, X4:ramp1.I:1", "setting": "[2]; X4:ramp1 1:1", "value": "95.1306 and 98.4249"}, {"measurement": "response to agonist, X4:ramp1.I:2", "setting": "[2]; X4:ramp1 1:2", "value": "83.6233 and 101.678"}, {"measurement": "response to agonist, X4:ramp2.I:0.25", "setting": "[3]; X4:ramp2 1:0.25", "value": "79.4398 and 88.1338"}, {"measurement": "response to agonist, X4:ramp2.I:0.5", "setting": "[3]; X4:ramp2 1:0.5", "value": "67.697 and 77.1393"}, {"measurement": "response to agonist, X4:ramp2.I:1", "setting": "[3]; X4:ramp2 1:1", "value": "40.116 and 40.4903"}, {"measurement": "response to agonist, X4:ramp2.I:2", "setting": "[3]; X4:ramp2 1:2", "value": "13.5988 and 14.044"}, {"measurement": "response to agonist, X4:ramp3.I:0.25", "setting": "[4]; X4:ramp3 1:0.25", "value": "86.9905 and 87.7685"}, {"measurement": "response to agonist, X4:ramp3.I:0.5", "setting": "[4]; X4:ramp3 1:0.5", "value": "74.5043 and 88.6761"}, {"measurement": "response to agonist, X4:ramp3.I:1", "setting": "[4]; X4:ramp3 1:1", "value": "78.3418 and 68.7873"}, {"measurement": "IP1 accumulation, dose-response (Figure 1a)", "setting": "[5]; log [agonist] (M) -4", "value": "0.4812 and 0.4346 and 0.8349 and -0.1011 and 0.2178 and -0.3214 and 0.5013 and -0.2736 and -1.513 and -0.6571 and 0.03201 and -0.9921"}, {"measurement": "IP1 accumulation, dose-response (Figure 1a)", "setting": "[5]; log [agonist] (M) -4.95424", "value": "0.8578 and 0.7057 and 0.8792 and 0.1679 and 0.2632 and -0.1306 and 0.2729 and -0.3135 and 0.01077 and -0.3984 and 1.094 and -0.3997"}, {"measurement": "IP1 accumulation, dose-response (Figure 1a)", "setting": "[5]; log [agonist] (M) -5.90849", "value": "0.6444 and 0.5533 and 0.8424 and 0.3166 and 0.4567 and -0.2351 and 0.4796 and -0.05346 and 0.7094 and 0.5317 and 1.212 and 0.8514"}, {"measurement": "IP1 accumulation, dose-response (Figure 1a)", "setting": "[5]; log [agonist] (M) -6.86273", "value": "1.003 and 1.057 and 1.14 and 0.6057 and 0.714 and 0.2582 and 0.7883 and 0.3494"}, {"measurement": "response to agonist, X4:ramp3.I:2", "setting": "[6]", "value": "54.7688 and 68.6572"}]}
